Experimental data: patent publication US20260014147A1, “STAT6 DEGRADERS” (Gilead Sciences, Inc., priority 2024, published 2026)

The molecules below were run against T1, STAT6 (endogenous, HiBiT-tagged) in HeLa LgBiT clone 4.14 cells (Homo sapiens, UniProt P42226) (assay: STAT6 Degrader Assay (HiBiT based, HeLa LgBiT clone 4.14 cells, luminescence, DC50)). Details: DC50 provided for test compounds with >80% Emax, geometric mean, read-out: STAT6 degradation DC50.
T1 construct: These cells express endogenous STAT6; host or cells: HeLa LgBiT clone 4.14
T1 sequence (P42226 1-847): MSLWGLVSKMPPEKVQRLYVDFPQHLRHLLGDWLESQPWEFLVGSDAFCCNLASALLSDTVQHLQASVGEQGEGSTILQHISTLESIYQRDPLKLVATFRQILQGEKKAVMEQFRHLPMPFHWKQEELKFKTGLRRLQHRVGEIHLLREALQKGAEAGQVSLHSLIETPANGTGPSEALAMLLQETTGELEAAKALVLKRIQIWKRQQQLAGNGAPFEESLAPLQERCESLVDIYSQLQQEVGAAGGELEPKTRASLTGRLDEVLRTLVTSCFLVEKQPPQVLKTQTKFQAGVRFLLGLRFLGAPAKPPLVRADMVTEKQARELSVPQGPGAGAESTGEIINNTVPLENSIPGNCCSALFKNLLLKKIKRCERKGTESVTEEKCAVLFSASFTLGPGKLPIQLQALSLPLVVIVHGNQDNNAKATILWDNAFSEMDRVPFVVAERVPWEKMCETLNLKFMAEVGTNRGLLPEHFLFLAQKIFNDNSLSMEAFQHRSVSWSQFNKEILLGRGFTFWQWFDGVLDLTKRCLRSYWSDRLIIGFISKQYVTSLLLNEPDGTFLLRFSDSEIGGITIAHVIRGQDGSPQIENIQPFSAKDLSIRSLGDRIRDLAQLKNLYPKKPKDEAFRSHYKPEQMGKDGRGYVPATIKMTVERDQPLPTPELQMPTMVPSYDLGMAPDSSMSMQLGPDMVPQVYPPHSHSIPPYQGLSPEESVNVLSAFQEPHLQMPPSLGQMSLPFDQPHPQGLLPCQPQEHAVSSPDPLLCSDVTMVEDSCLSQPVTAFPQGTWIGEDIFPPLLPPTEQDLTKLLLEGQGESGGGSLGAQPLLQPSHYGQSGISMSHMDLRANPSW
Assay type: cell-based
Method: This was a HiBit based assay. A HeLa cell line stably transfected with a small protein, LgBit (Large Bit) was obtained from Promega. These cells express endogenous STAT6. A small 11 amino acid gene sequence (HiBiT) was inserted in the STAT6 gene using CRISPR technology. Once STAT6 protein is expressed in the cells, the HiBiT sequence will bind the LgBit in the cells resulting in a functional NanoBiT protein, giving a luminescent tag to STAT6. Single cell clones were prepared and the clone 4.14 was selected for the assay based on that clone showing high luminescence, high STAT6 phosphorylation upon stimulation with IL-4, and inhibition of luminescence when cells were treated with STAT6 siRNA. HeLa LgBiT clone 4.14 cells were suspended in DMEM with 10% FCS, 1% Pen/Strep, Na-pyrovate and Hygromycin B, at a concentration of […]. 5000 cells were added pr well of a 384 well plate and 20 nL of compound was added by Echo® liquid handler. NN6394A (terfenadine, a toxic compound) was added to control wells at 50 µM concentration to establish the assay window. In these wells the cells are dead which equals 100% degradation of STAT6. After 4-24 h of incubation at 37° C. under 5% CO2/95% air, […] substrate (Nano-GLO®) was added to the wells and the plates were centrifuged and incubated for 0.5 h. The luminescence in the wells as a measure of non-degraded STAT6 was measured in a plate reader (BMG Pherastar FSX). The dose-response curves for Examples 2a2, 2t1, 2 h3, and 2r1 are shown below (where percent degradation is plotted vs. test compound concentration in M on a log-scale).

Compound	DC50
Cn1c(CN2CCC(c3ccc(C(=O)N4CCC(CN5CCN(c6ccc(NC7CCC(=O)NC7=O)cc6F)CC5)CC4)cc3)CC2)cc2c(-c3ccc4[nH]ncc4c3)ccnc21 (single isomer, unassigned) [Example 2c6]	22.5 nM
Cn1c(CN2CCC(c3ccc(C(=O)N4CCC(CN5CCN(c6ccc(NC7CCC(=O)NC7=O)cc6)CC5)CC4)cc3)CC2)cc2c(-c3ccc4[nH]ncc4c3)ccnc21 (centres unmarked) [Example 2b1, 3-((4-(4-((1-(4-(1-((4-(1H-indazol-5-yl)-1-methyl-1H-pyrrolo[2,3-b]pyridin-2-yl)methyl)piperidin-4-yl)benzoyl)piperidin-4-yl)methyl)piperazin-1-yl)phenyl)amino)piperidine-2,6-dione]	19.2 nM

The remaining lines, values ahead:

DC50	Compound
3.3 nM	CNc1ccc(-c2ccnc3c2cc([C@H](C)N2CCC(c4ccc(C(=O)N5CCn6nc(CN7CCC(c8ccc(NC9CCC(=O)NC9=O)cc8F)CC7)cc6C5)cc4)CC2)n3C)cn1 (mixture of isomers) [Example 2c41, 3-((3-fluoro-4-(1-((5-(4-(1-((S)-1-(1-methyl-4-(6-(methylamino)pyridin-3-yl)-1H-pyrrolo[2,3-b]pyridin-2-yl)ethyl)piperidin-4-yl)benzoyl)-4,5,6,7-tetrahydropyrazolo[1,5-a]pyrazin-2-yl)methyl)piperidin-4-yl)phenyl)amino)piperidine-2,6-dione]
11.2 nM	CC(c1cc2c(-c3ccc(N)nc3)ccnc2n1C)N1CCC(c2ccc(C(=O)N3CCC(CN4CCN(c5ccc(N[C@H]6CCC(=O)NC6=O)cc5F)CC4)CC3)cc2)CC1 (single isomer, unassigned) [Example 2c11]
17.7 nM	CC(c1cc2c(-c3ccc(N)nc3)ccnc2n1C)N1CCC(c2ccc(C(=O)N3CCC(CN4CCN(c5ccc(N[C@@H]6CCC(=O)NC6=O)cc5F)CC4)CC3)cc2)CC1 (single isomer, unassigned) [Example 2c12]
5.4 nM	CNc1ccc(-c2ccnc3c2cc([C@H](C)N2CCC(c4ccc(C(=O)N5CCn6nc(CN7CCC(c8ccc(N[C@H]9CCC(=O)NC9=O)cc8F)CC7)cc6C5)cc4)CC2)n3C)cn1 (single isomer, unassigned) [Example 2c42]
1.6 nM	CNc1ccc(-c2ccnc3c2cc([C@H](C)N2CCC(c4ccc(C(=O)N5CCn6nc(CN7CCC(c8ccc(N[C@@H]9CCC(=O)NC9=O)cc8F)CC7)cc6C5)cc4)CC2)n3C)cn1 (single isomer, unassigned) [Example 2c43]
4.4 nM	COC(C)c1nc2cc(-c3ccnc4c3cc([C@H](C)N3CCC(c5ccc(C(=O)N6CCC(CN7CCN(c8ccc(NC9CCC(=O)NC9=O)cc8F)CC7)CC6)cc5)CC3)n4C)ccc2[nH]1 (stereo in doubt) [Example 2c21, 3-((3-fluoro-4-(4-((1-(4-(1-((S)-1-(4-(2-((R)-1-methoxyethyl)-1H-benzo[d]imidazol-5-yl)-1-methyl-1H-pyrrolo[2,3-b]pyridin-2-yl)ethyl)piperidin-4-yl)benzoyl)piperidin-4-yl)methyl)piperazin-1-yl)phenyl)amino)piperidine-2,6-dione]
14.1 nM	CC(c1cc2c(-c3ccc(N)nc3)ccnc2n1C)N1CCC(c2ccc(C(=O)N3CCC(CN4CCN(c5ccc(NC6CCC(=O)NC6=O)cc5F)CC4)CC3)cc2)CC1 (centres unmarked) [Example 2c10, 3-((4-(4-((1-(4-(1-(1-(4-(6-aminopyridin-3-yl)-1-methyl-1H-pyrrolo[2,3-b]pyridin-2-yl)-ethyl)-piperidin-4-yl)benzoyl)piperidin-4-yl)methyl)piperazin-1-yl)-3-fluorophenyl)amino)piperidine-2,6-dione]

Same assay, conditions: Emax provided for test compounds with <80% Emax (and 2c15), geometric mean, read-out: STAT6 degradation Emax

Compound	Emax
Cn1c(CN2CCC(c3ccc(C(=O)N4CCC(CN5CCN(c6ccc(N[C@H]7CCC(=O)NC7=O)cc6F)CC5)CC4)cc3)CC2)cc2c(-c3ccc4[nH]ncc4c3)ccnc21 (single isomer, unassigned) [Example 2c5]	70 to 80%
Cn1c(CN2CCC(c3ccc(C(=O)N4CCC(CN5CCN(c6ccc(NC7CCC(=O)NC7=O)c(F)c6)CC5)CC4)cc3)CC2)cc2c(-c3ccc4[nH]ncc4c3)ccnc21 (centres unmarked) [Example 2b2, 3-((4-(4-((1-(4-(1-((4-(1H-indazol-5-yl)-1-methyl-1H-pyrrolo[2,3-b]pyridin-2-yl)methyl)piperidin-4-yl)benzoyl)piperidin-4-yl)methyl)piperazin-1-yl)-2-fluorophenyl)amino)piperidine-2,6-dione]	70 to 80%
COCc1nc2cc(-c3ccnc4c3cc(CN3CCC(c5ccc(C(=O)N6CCC(CN7CCN(c8ccc(NC9CCC(=O)NC9=O)c(F)c8)CC7)CC6)cc5)CC3)n4C)ccc2[nH]1 (centres unmarked) [Example 2b3, 3-((2-fluoro-4-(4-((1-(4-(1-((4-(2-(methoxymethyl)-1H-benzo[d]imidazol-5-yl)-1-methyl-1H-pyrrolo[2,3-b]pyridin-2-yl)methyl)piperidin-4-yl)benzoyl)piperidin-4-yl)methyl)piperazin-1-yl)phenyl)amino)piperidine-2,6-dione]	70 to 80%
Cn1c(CN2CCC(c3ccc(C(=O)N4CCC(CN5CCN(c6ccc(NC7CCC(=O)NC7=O)cc6F)CC5)CC4)cc3)CC2)cc2c(-c3ccc(N)nc3)ccnc21 (centres unmarked) [Example 2c2, 3-((4-(4-((1-(4-(1-((4-(6-aminopyridin-3-yl)-1-methyl-1H-pyrrolo[2,3-b]pyridin-2-yl)methyl)-piperidin-4-yl)benzoyl)piperidin-4-yl)methyl)piperazin-1-yl)-3-fluorophenyl)amino)piperidine-2,6-dione]	50 to 60%
COCc1nc2cc(-c3ccnc4c3cc(CN3CCC(c5ccc(C(=O)N6CCC(CN7CCN(c8ccc(NC9CCC(=O)NC9=O)cc8F)CC7)CC6)cc5)CC3)n4C)ccc2[nH]1 (centres unmarked) [Example 2c4, 3-((3-fluoro-4-(4-((1-(4-(1-((4-(2-(methoxymethyl)-1H-benzo[d]imidazol-5-yl)-1-methyl-1H-pyrrolo[2,3-b]pyridin-2-yl)methyl)piperidin-4-yl)benzoyl)piperidin-4-yl)methyl)piperazin-1-yl)phenyl)-amino)piperidine-2,6-dione]	70 to 80%

The remaining lines, values ahead:

Emax	Compound
30 to 40%	Cc1nc(N)ccc1-c1ccnc2c1cc(CN1CCC(c3ccc(C(=O)N4CCC(CN5CCN(c6ccc(NC7CCC(=O)NC7=O)cc6F)CC5)CC4)cc3)CC1)n2C (centres unmarked) [Example 2c7, 3-((4-(4-((1-(4-(1-((4-(6-amino-2-methylpyridin-3-yl)-1-methyl-1H-pyrrolo[2,3-b]pyridin-2-yl)methyl)piperidin-4-yl)benzoyl)piperidin-4-yl)methyl)piperazin-1-yl)-3-fluorophenyl)amino)piperidine-2,6-dione]
50 to 60%	Cc1cc(C(=O)N2CCC(CN3CCN(c4ccc(NC5CCC(=O)NC5=O)cc4F)CC3)CC2)ccc1C1=CCN(Cc2cc3c(-c4ccc(N)nc4)ccnc3n2C)CC1 (centres unmarked) [Example 2c9, 3-((4-(4-((1-(4-(1-((4-(6-aminopyridin-3-yl)-1-methyl-1H-pyrrolo[2,3-b]pyridin-2-yl)methyl)-1,2,3,6-tetrahydropyridin-4-yl)-3-methylbenzoyl)piperidin-4-yl)methyl)piperazin-1-yl)-3-fluorophenyl)-amino)piperidine-2,6-dione]
< 20%	C[C@H](c1cc2c(-c3ccc(N)nc3)ccnc2n1C)N1CCC(c2ccc(C(=O)N3CCC(CN4CCN(c5ccc(NC6CCC(=O)NC6=O)cc5F)CC4)CC3)cc2)CC1 (stereo partly drawn) [Example 2c13, 3-((4-(4-((1-(4-(1-((R)-1-(4-(6-aminopyridin-3-yl)-1-methyl-1H-pyrrolo[2,3-b]pyridin-2-yl)ethyl)-piperidin-4-yl)benzoyl)piperidin-4-yl)methyl)piperazin-1-yl)-3-fluorophenyl)amino)piperidine-2,6-dione]
